Data on two compounds can be found in ChEMBL document CHEMBL1138425, “Beta-secretase (BACE-1) inhibitors: accounting for 10s loop flexibility using rigid active sites” (Bioorg Med Chem Lett, 2007).

For this assay, the target named is Beta-secretase 1 (Homo sapiens, UniProt P56817). Description: Inhibition of BACE1.

In general, Ki refers to the equilibrium dissociation constant of an inhibitor or competing ligand from its target.

Sequence of Beta-secretase 1 (P56817 whole entry): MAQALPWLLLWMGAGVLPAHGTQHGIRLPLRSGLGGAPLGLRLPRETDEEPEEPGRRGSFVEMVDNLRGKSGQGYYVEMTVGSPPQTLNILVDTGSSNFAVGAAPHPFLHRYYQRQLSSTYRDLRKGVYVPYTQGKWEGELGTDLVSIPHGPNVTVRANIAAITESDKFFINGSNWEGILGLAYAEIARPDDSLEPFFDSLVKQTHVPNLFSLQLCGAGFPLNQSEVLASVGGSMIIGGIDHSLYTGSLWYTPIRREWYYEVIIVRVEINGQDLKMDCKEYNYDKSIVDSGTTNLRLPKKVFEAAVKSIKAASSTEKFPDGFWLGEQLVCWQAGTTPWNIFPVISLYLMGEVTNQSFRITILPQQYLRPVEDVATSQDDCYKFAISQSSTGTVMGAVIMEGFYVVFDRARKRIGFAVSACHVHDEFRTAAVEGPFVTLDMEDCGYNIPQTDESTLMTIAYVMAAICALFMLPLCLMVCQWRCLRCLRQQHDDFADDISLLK

Turning to `CC(C)C(=O)c1cc(-c2nnc([C@](C)(N)Cc3ccccc3)o2)cc(N(C)S(C)(=O)=O)c1`, the Ki is 16.5 µM (read-out: Ki) and 15.8 µM (read-out: Log Ki (converted)).
For `CCCN(c1cc(/C=C\C2CC2C)cc(-c2nnc([C@](C)(N)Cc3ccccc3)o2)c1)S(C)(=O)=O` (some centres undefined), in that order: 0.0519 µM and 0.0501 µM.
